# Data published in ChEMBL document CHEMBL1201862, “PubChem BioAssay data set” (2004).
#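 48-hour exposure; five concentrations; linearly interpolated endpoints. GI50 marks 50% less growth.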 Active and inactive are the calls of the source. Cut-off read from the data, not from the text of the source: active = GI50 up to about 1.1 µM and inactive = higher.
# Legend:
# Experiment in all cases: inhibition of tumour cell growth, NCI panel, 48 h
# [1] = test system: SR
# [2] = test system: HL-60
# [3] = test system: HT-29
# [4] = test system: IGROV-1
# [5] = test system: UO-31
# [6] = test system: A498
# [7] = test system: K562
# [8] = test system: SN12C
# [9] = test system: A549
# [10] = test system: SK-MEL-28
# [11] = test system: HOP-62
# [12] = test system: SNB-78
# [13] = test system: OVCAR-5
# [14] = test system: HCT-15
# [15] = test system: M19-MEL
# [16] = test system: DMS-273
# [17] = test system: SNB-75
# [18] = test system: NCI-H522
# [19] = test system: HOP-18
# [20] = test system: SK-MEL-5
# [21] = test system: CCRF-CEM
# [22] = test system: EKVX
# [23] = test system: RPMI-8226
# [24] = test system: OVCAR-4
# [25] = test system: SNB-19
# [26] = test system: 786-0
# [27] = test system: DMS-114
# [28] = test system: NCI-H460
# [29] = test system: HCT-116
# [30] = test system: OVCAR-8
# [31] = test system: RXF 393
# [32] = test system: MOLT-4
# [33] = test system: KM12
# [34] = test system: DLD-1
# [35] = test system: UACC-62
# [36] = test system: SF-268
# [37] = test system: SK-MEL-2
# [38] = test system: OVCAR-3
# [39] = test system: UACC-257
# [40] = test system: U-251
# [41] = test system: TK-10
# [42] = test system: ACHN
# [43] = test system: Malme-3M
# [44] = test system: M14
# [45] = test system: NCI-H23
# [46] = test system: LXFL 529
# [47] = test system: SF-539
# [48] = test system: SW-620
# [49] = test system: SF-295
# [50] = test system: COLO 205
# [51] = test system: SK-OV-3
# [52] = test system: KM-20L2
# [53] = test system: HOP-92
# [54] = test system: CAKI-1
# [55] = test system: NCI-H226
structure (smiles),measurement,setting,value
CN(C)CCC(/C=C/c1ccccc1)=N\Nc1ccc(Cl)cc1Cl,GI50,[1],7.57 µM (inactive)
same,GI50,[2],2.29 µM (inactive)
same,GI50,[3],14.2 µM (inactive)
same,GI50,[4],8.02 µM (inactive)
same,GI50,[5],1.73 µM (inactive)
same,GI50,[6],16.6 µM (inactive)
same,GI50,[7],13.1 µM (inactive)
same,GI50,[8],11.1 µM (inactive)
same,GI50,[9],15.6 µM (inactive)
same,GI50,[10],14.3 µM (inactive)
same,GI50,[11],13.6 µM (inactive)
same,GI50,[12],13.5 µM (inactive)
same,GI50,[13],15.5 µM (inactive)
same,GI50,[14],11.9 µM
same,GI50,[15],15.6 µM (inactive)
same,GI50,[16],13.2 µM (inactive)
same,GI50,[17],6.1 µM (inactive)
same,GI50,[18],15.3 µM (inactive)
same,GI50,[19],10.2 µM (inactive)
same,GI50,[20],13.4 µM (inactive)
same,GI50,[21],10.5 µM (inactive)
same,GI50,[22],15 µM (inactive)
same,GI50,[23],11.7 µM (inactive)
same,GI50,[24],14.7 µM (inactive)
same,GI50,[25],15.5 µM (inactive)
same,GI50,[26],12.9 µM (inactive)
same,GI50,[27],14.8 µM (inactive)
same,GI50,[28],13.8 µM (inactive)
same,GI50,[29],14.5 µM (inactive)
same,GI50,[30],16.3 µM (inactive)
same,GI50,[31],8.77 µM (inactive)
same,GI50,[32],10.9 µM (inactive)
same,GI50,[33],15.1 µM (inactive)
same,GI50,[34],14.1 µM (inactive)
same,GI50,[35],9.35 µM (inactive)
same,GI50,[36],12.2 µM (inactive)
same,GI50,[37],13.3 µM (inactive)
same,GI50,[38],14.1 µM (inactive)
same,GI50,[39],13.9 µM (inactive)
same,GI50,[40],11.6 µM (inactive)
same,GI50,[41],14.2 µM (inactive)
same,GI50,[42],12.7 µM (inactive)
same,GI50,[43],18.5 µM (inactive)
same,GI50,[44],13.7 µM (inactive)
same,GI50,[45],17.1 µM (inactive)
same,GI50,[46],10.9 µM (inactive)
same,GI50,[47],15.2 µM (inactive)
same,GI50,[48],14 µM (inactive)
same,GI50,[49],16.6 µM (inactive)
same,GI50,[50],14.6 µM (inactive)
same,GI50,[51],10.8 µM (inactive)
CCOc1ccc2c(c1)[n+]([O-])c(-c1ccc(Cl)cc1)c(N)[n+]2[O-],GI50,[1],> 100 µM (inactive)
same,GI50,[2],44 µM (inactive)
same,GI50,[3],> 100 µM (inactive)
same,GI50,[4],> 100 µM (inactive)
same,GI50,[5],67.1 µM (inactive)
same,GI50,[6],> 100 µM (inactive)
same,GI50,[7],> 100 µM (inactive)
same,GI50,[8],> 100 µM (inactive)
same,GI50,[9],> 100 µM (inactive)
same,GI50,[10],> 100 µM (inactive)
same,GI50,[11],> 100 µM (inactive)
same,GI50,[12],> 100 µM (inactive)
same,GI50,[52],> 100 µM (inactive)
same,GI50,[13],> 100 µM (inactive)
same,GI50,[14],> 100 µM
same,GI50,[16],> 100 µM (inactive)
same,GI50,[17],85.1 µM (inactive)
same,GI50,[18],34.4 µM (inactive)
same,GI50,[19],> 100 µM (inactive)
same,GI50,[20],> 100 µM (inactive)
same,GI50,[22],95.7 µM (inactive)
same,GI50,[23],10.8 µM (inactive)
same,GI50,[24],> 100 µM (inactive)
same,GI50,[25],> 100 µM (inactive)
same,GI50,[26],> 100 µM (inactive)
same,GI50,[27],68.7 µM (inactive)
same,GI50,[28],> 100 µM (inactive)
same,GI50,[29],> 100 µM (inactive)
same,GI50,[53],> 100 µM (inactive)
same,GI50,[30],> 100 µM (inactive)
same,GI50,[32],44.3 µM (inactive)
same,GI50,[33],> 100 µM (inactive)
same,GI50,[34],> 100 µM (inactive)
same,GI50,[36],> 100 µM (inactive)
same,GI50,[37],> 100 µM (inactive)
same,GI50,[38],> 100 µM (inactive)
same,GI50,[39],> 100 µM (inactive)
same,GI50,[40],> 100 µM (inactive)
same,GI50,[42],> 100 µM (inactive)
same,GI50,[43],> 100 µM (inactive)
same,GI50,[54],> 100 µM (inactive)
same,GI50,[44],> 100 µM (inactive)
same,GI50,[45],> 100 µM (inactive)
same,GI50,[46],87.7 µM (inactive)
same,GI50,[55],> 100 µM (inactive)
same,GI50,[47],> 100 µM (inactive)
same,GI50,[48],> 100 µM (inactive)
same,GI50,[49],> 100 µM (inactive)
same,GI50,[50],> 100 µM (inactive)
same,GI50,[51],> 100 µM (inactive)
